Laboratory results taken from patent US20170340636A1, “COMPOSITIONS AND METHODS FOR INHIBITION OF AUTOPHAGY” (Board of Regents, The University of Texas System, priority 2016, published 2017).
Entries after “also recorded” stand apart in the source; their conditions may differ.

What was measured:
TAOK2 = biological target: T1, TAOK2 (Rattus norvegicus, UniProt Q9JLS3); test: Differential scanning fluorimetry (DSF) binding assay against TAOK2; conditions: DSF melt temperature shift of TAOK2, 5 μM TAOK2, compound 1 μM
T1 construct: made in house
T1 sequence (Q9JLS3 1-320 limits assumed): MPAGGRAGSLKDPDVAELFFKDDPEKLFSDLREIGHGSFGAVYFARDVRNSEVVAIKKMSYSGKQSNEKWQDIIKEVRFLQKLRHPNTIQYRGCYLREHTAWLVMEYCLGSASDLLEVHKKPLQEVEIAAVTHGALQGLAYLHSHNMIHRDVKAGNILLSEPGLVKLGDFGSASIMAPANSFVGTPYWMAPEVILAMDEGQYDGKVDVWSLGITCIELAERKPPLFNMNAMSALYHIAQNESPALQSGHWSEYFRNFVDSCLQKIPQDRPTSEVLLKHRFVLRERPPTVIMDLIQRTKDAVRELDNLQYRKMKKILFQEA
Description: (§1) Differential scanning fluorimetry binding assays of selected compounds against TAOK2 were conducted to measure strength of compound binding. A solution of 5 μM TAOK2, 50 mM MgCl2, 50 mM HEPES pH 7.5, and 2.5x SyproOrange(Life Technologies) was made. Compound was added to a final concentration of 1 μM. 25 μl of the reaction solution was added to the wells of a Biorad Multiplate 96 wellclear PCR plate. The plate was covered with a Biorad Microseal ‘B’ seal. Plates were read in a Biorad CFX96 Real-Time PCR system. The temperature was increased from 4° C. to 80° C., with fluorescence measurements being taken every 0.5° C. in the 6-FAM Fluorescein channel. The fluorescence response to heat curve was fit to a binding isotherm in order to determine the inflection point, which was taken as the melt temperature (Tm).
The prevalence of multiple heterocycles in the compounds is reflective of the composition of the screen (described in Methods in Supplemental Material). These 13 compounds were purchased from Chembridge Inc. and ChemDiv Inc. for measurement of direct binding using Differential Scanning Fluorimetry (DSF). DSF measures protein melt temperature (Tm) with a lipophilic dye (SyproOrange). As the temperature of the solution is increased, measurements of dye fluorescence are taken. When the protein begins to denature, hydrophobic regions in the protein are exposed, and the dye is able to bind. This binding insulates the dye from the surrounding water, reducing quenching effects and allowing fluorescence. Binding of small molecules to protein has a stabilizing effect, and this is seen by an increase in melt temperature (Table 1). The ΔTm values ranged from 3.0 to −0.6° C. The three compounds with the highest positive shifts were SW034538, SW163112, and SW083688, with 3° C., 2.2° C., and 2° C. shifts, respectively.

p38 = p38 (Homo sapiens, UniProt Q16539); test: DSF against p38 (selectivity panel of MAPK cascade members); type: binding; conditions: difference between the TAOK2 ΔTm and that of p38, DSF
Description: as §1
(§2) The difference between the TAOK2 ΔTm and that of p38 and ASK1 was determined. […] The majority of the other compounds were also preferentially inhibitory toward TAOK2. Of the 13 compounds, SW034538, SW172006 and SW083688 were cross-verified for selectivity by performing a specificity screen against 45 kinases commercially at Eurofins Cerep, Inc. (FIG. 3).

U2OS GFP-LC3 cells = test: GFP-LC3 accumulation by flow cytometry (autophagic flux); type: cell-based, human; conditions: 50 μM, 24 hours
Description: FIG. 4A) U2OS cells stably expressing the GFP-LC3 fusion transgene were treated with the indicated compound at 50 μM concentration for 24 hours before GFP fluorescence was measured by flow cytometry. The median fluorescent value from 20,000 cells per condition was normalized to that of vehicle alone (DMSO) within a given experiment. The mean+SD of >2 independent experiments is shown. ****, p<0.0001; ***, p<0.001; **, p<0.01; ns, p>0.05 versus vehicle alone (DMSO) by unpaired t test. FIG. 4B) TAOK2 inhibitors induce accumulation of p62. U2OS GFP-LC3 cells were treated with the indicated compounds at 50 μM concentration, or DMSO alone, for 24 hours. Lysates were collected and analyzed by western blot using the indicated antibodies. XPB was used as a loading control.
U2OS GFP-LC3 cells were seeded in 6-well plates at 150,000 cells per well in Dulbecco's Modified Eagle Medium supplemented with 10% fetal bovine serum. Twenty-four hours after seeding, the indicated compounds were added to a final concentration of 50 μM, or an equivalent volume of vehicle alone (DMSO) was added. Twenty-four hours after compound addition, cells were rinsed with PBS (Phosphate-Buffered Saline) and analyzed by flow cytometry using a FACS Calibur (BD Biosciences) to measure media GFP fluorescence per cell.
It had previously been determined that TAOK2 is required for autophagic flux in cancer cells. siRNA targeting TAOK2 elicited an expression response similar to siRNA targeting known autophagy genes, such as ULK1, a protein kinase involved in mTOR and AMPK signaling, in the human colon cancer cell line HCT116. TAOK2 depletion also impaired autophagic flux in human osteosarcoma cell line U2OS engineered to stably express the autophagy marker 1A/1B-light chain 3 fused to GFP (GFP-LC3), a microtubule associated protein.
Degradation of the autophagy scaffold and LC3 binding protein p62 is a second marker of autophagic flux. p62 degradation was assayed by Western blotting (FIG. 4B).

p38 and ASK1 = test: DSF selectivity for TAOK2 over small panel of other MAPK cascade members; type: binding; conditions: versus p38 and ASK1
Description: as §1, §2

45 off-target kinases = test: Specificity screen against 45 kinases (Eurofins Cerep); type: biochemical; conditions: inhibition higher than 50% considered significant
Description: Of the 13 inhibitors, 3 were tested for cross-reactivity against 45 off-target kinases.
as §2

p38, sequence (Q16539 whole entry): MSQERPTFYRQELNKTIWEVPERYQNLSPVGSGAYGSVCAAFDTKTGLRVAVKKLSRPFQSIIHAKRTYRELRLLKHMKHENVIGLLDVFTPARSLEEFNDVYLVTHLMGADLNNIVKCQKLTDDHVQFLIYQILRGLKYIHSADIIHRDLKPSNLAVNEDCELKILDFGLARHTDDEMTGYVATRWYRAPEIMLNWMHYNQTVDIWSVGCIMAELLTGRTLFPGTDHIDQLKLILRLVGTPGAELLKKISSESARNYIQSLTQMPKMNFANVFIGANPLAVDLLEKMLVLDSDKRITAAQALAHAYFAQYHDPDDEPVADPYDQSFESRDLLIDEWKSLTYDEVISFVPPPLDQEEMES

| ΔTm at 1 µM (TAOK2) [°C] | ΔΔTm (p38) (p38) [°C] | SMILES | impairment of autophagic flux (accumulation of GFP-LC3) (U2OS GFP-LC3 cells) | selectivity for TAOK2 according to DSF (p38 and ASK1) | specificity toward TAOK2 in screen against 45 kinases (45 off-target kinases) |
| --- | --- | --- | --- | --- | --- |
| 3 | 2.8 | CCC(=O)Nc1nc(C)c(-c2csc(Nc3cc(OC)ccc3OC)n2)s1 [SW034538] | showing inhibition; also recorded: effective | selective | cross-reactivity with respect to six of the 45 kinases |
| 2 | 2.0 | CCOCCCn1c(=S)[nH]c2cc(C(=O)NCC3COc4ccccc4O3)ccc2c1=O (stereo not drawn) [SW083688] | effective | selective | highly specific toward TAOK2 |
| 1.3 | 2.0 | CS(=O)(=O)c1ccc2nc(NC(=O)CCCOc3ccc(Cl)cc3)sc2c1 [SW172006] | effective | selective | highly specific toward TAOK2 |
